The source of these data is patent publication US9765109B2, “2′-arabino-fluorooligonucleotide N3′→P5′ phosphoramidates: their synthesis and use” (Geron Corporation, priority 2000, dated 2017).

The subject of data set [1] is natural phosphodiester RNA strand. As to the kind of experiment: Thermal denaturation (Tm) of duplexes with complementary RNA. It is filed as binding. Conditions: for Tm, RNA: duplex; for Tm difference of duplex with RNA: relative to 2′-deoxy phosphodiester oligonucleotide (experiment 1). The method, then: (§1) ^31P NMR spectra were obtained on a Varian 400 MHz spectrometer. ^31P NMR spectra were referenced against 85% aqueous phosphoric acid. Anion exchange HPLC was performed using a Dionex DX 500 Chromatography System, with a Pharmacia Biotech Mono Q HR 5/5 or 10/16 ion exchange columns. Ion exchange HPLC was performed on the Dionex DX 500 system, using a Pharmacia Mono Q HR 5/5 column. Buffer A and B were: 10 mM NaOH, pH12 and 10 mM NaOH, 1.5 M NaCl, pH12, respectively. Oligonucleotides were eluted using a 1.5%/min. linear gradient of buffer B in A; flow 0.5 mL/min. Mass spectral analysis was performed by Mass Consortium, San Diego, Calif. MALDI-TOF analysis of oligonucleotides was obtained using a PerSpective Biosystems Voyager Elite mass spectrometer with delayed extraction. Thermal dissociation experiments were conducted on a Cary Bio 100 UV-Vis spectrometer.
(§2) ^ad, r, and a correspond to the 2′-deoxy, 2′-ribo-fluoro and to 2′-arabino-fluoronucleosides respectively; p and n correspond to the internucleoside phosphodiester and N3′→P5′ phosphoramidate linkages, respectively; ^bmelting temperature, Tm (±0.5° C.), of the duplexes formed with natural phosphodiester ssDNA or RNA strands, or: ^etriplexes formed with dA/dT duplex part of d(A10C4T10) hairpin. Buffers: ^c150 mM NaCl, 10 mM sodium phosphate buffer pit 7.4—first number, or in: ^dthe same buffer containing an additional 10 mM magnesium chloride—second number; n.o or n.d—the melting transitions and Tm's were not observed or not determined, respectively.
(§3) The ability of N3′→P5′ phosphoramidate 2′-arabino-fluorooligonucleotides to form complexes with complementary DNA and RNA strands was examined and compared with related oligonucleotide analogues using thermal denaturation experiments. […] (compare experiments 1 and 2, Table 1). […] Substitution of 2′-deoxy-3′-aminonucleosides by 2′-arabino-fluoro-3′-amino counterparts stabilized duplexes, by about 2-7° C., with DNA and RNA in a low ionic strength buffer. […] (compare experiments 3 and 6, Table 1).

The subject of data set [2] is natural phosphodiester ssDNA. Briefly: Thermal denaturation (Tm) of duplexes with complementary DNA. It is filed as binding. Conditions: for Tm, DNA: duplex. The method, then:
as §1, §2, §3

Data set [3] relates to dA/dT duplex part of d(A10C4T10) hairpin. Briefly: Thermal denaturation (Tm) of triplexes with dsDNA. It is filed as binding. Conditions: for Tm, dsDNA: triplex. The method, then:
as §1
as §2, with “respectively. […]” for “respectively.”

The nature of data set [4]: Stability in concentrated aqueous ammonia, judged by IE HPLC. It is filed as physicochemical. Conditions: 24 hours, 55° C., IE HPLC analysis. The method, then: (§4) It was reported that the 2′-ribo-fluoropyrimidine containing oligonucleotides with N3′→P5′ phosphoramidate or with phosphodiester internucleoside linkages are somewhat labile during treatment with aqueous ammonia at 55° C. (Schultz et al., Nucl. Acids Res., 24:2966-2973, 1996; Krug et al., Nucleosides Nucleotides, 8:1473-1483, 1989). Under these basic conditions pyrimidine-O2 mediated elimination of the 2′-fluorine atom takes place, resulting in formation of 2,3′-O-anhydronucleosides and multiple products of their consequent reactions with aqueous ammonia, including 2′-arabino-hydroxyl nucleosides (Krug et al., Nucleosides Nucleotides, 8:1473-1483, 1989). In contrast, the prepared 2′-arabino-fluoro phosphoramidate oligonucleotides were stable under these conditions.

Data set [5] is described as follows: Acid stability, half-life at pH 3. It is filed as physicochemical. The method, then: as §4
Where [6] appears, read: single value given, buffer not stated.
Setting [7] is: 150 mM NaCl, 10 mM sodium phosphate buffer (first number).
[8] abbreviates: same buffer with additional 10 mM magnesium chloride (second number).

With “a(Cn^fUn^fCn^fUn^fCn^fUn^fGnCn^fCn^f) (CUCUCUGCC; 2'-arabino-fluoro phosphoramidate backbone; contains 2 prime-arabino-fluoronucleosides; test compounds) [SEQ ID NO:10, mixed base 2′-arabino-fluoro phosphoramidate oligonucleotide]”, the “Tm, RNA” value in data set [1] (setting [6]) was 66.8 °C.

For the substance “r(Up^fUp^fUp^fUp^fUp^fUp^fUp^fUp^fUp^fT) (UUUUUUUUUT; 2′-ribo-fluoro; contains 2 prime-ribo-fluoronucleosides; test compounds) [SEQ ID NO:4, 2′-ribo-fluoro phosphodiester decanucleotide]”, the figures for the “Tm, RNA” value in data set [1] (setting [7]) and in data set [1] (setting [8]) were 32.9 °C and 36.6 °C, respectively. Besides, the “Tm difference of duplex with RNA” value in data set [1] was 15.0-16.3 °C. The “Tm, DNA” value was “n.o” in data set [2] (setting [7]) and 18.0 °C in data set [2] (setting [8]). Moreover, in data set [2] (relative to 2′-deoxy phosphodiester oligonucleotide (experiments 1 and 2)), the “Tm difference of complex with DNA (destabilization)” value was −6.7-16 °C. For the same substance, the “Tm, dsDNA” value in data set [3] (setting [7]) and in data set [3] (setting [8]) was “n.o; n.o” each time.

Consider “dT-a(Un^fUn^fUn^fUn^fUn^fUn^fUn^fUn^f Un^f) (TUUUUUUUUU; 2′-arabino-fluoro phosphoramidate; 5′ dT; contains 2 prime-deoxy and 2 prime-arabino- fluoronucleosides; test compounds) [SEQ ID NO:8, 2′-arabino-fluoro N3′→P5′ phosphoramidate decanucleotide]”, for which the “Tm, RNA” value in data set [1] (setting [7]) and in data set [1] (setting [8]) was 40.0; 40.0 °C each time. The “Tm, DNA” value worked out at 25.7 °C in data set [2] (setting [7]) and 37.0 °C in data set [2] (setting [8]). Besides, the results for the “Tm, dsDNA” value in data set [3] (setting [7]) and in data set [3] (setting [8]) were 22.0 °C and 31.2 °C, respectively. In addition, the “Relative stability of triplex with dsDNA” value in data set [3] (versus SEQ ID NO:6 and SEQ ID NOs:3-5, but not SEQ ID NO:7) is on record as “more stable triplex”. Moreover, in data set [4], the “Stability on exposure to concentrated aqueous ammonia” value is “practically intact”. Further, the “Base and acid stability (summary statement)” value in data set [5] was “base and acid stable”.

“d(UnUnUnUnUnUnUnUnUnT) (UUUUUUUUUT; N3′→P5′ phosphoramidate; contains 2 prime-deoxy nucleosides; test compounds) [SEQ ID NO:6, 2′-deoxy N3′→P5′ phosphoramidate oligonucleotide]”: in data set [1], the “Effect of increasing buffer ionic strength on Tm of duplex with RNA” value is “no effect”. Further, the figures for the “Tm, RNA” value in data set [1] (setting [7]) and in data set [1] (setting [8]) were 38.1 °C and 47.2 °C, respectively. In addition, the “Tm difference of duplexes” value in data set [1] (relative to 2′-arabino-fluoro phosphodiester SEQ ID NO:5 (experiments 3 and 6), DNA and RNA) is 8.7-12.5 °C. Further, the “Tm, DNA” value was 18.5 °C in data set [2] (setting [7]) and 38.2 °C in data set [2] (setting [8]). Also, in data set [3] (setting [7]), the “Tm, dsDNA” value was <15; n.d ° C.

For the substance “a(Up^fUp^fUp^fUp^fUp^fUp^fUp^fUp^fUp^fT) [SEQ ID NO:5]”, the results for the “Tm, RNA” value in data set [1] (setting [7]) and in data set [1] (setting [8]) were 27.5 °C and 28.6 °C, respectively. Further, the “Tm difference of duplex with RNA” value in data set [1] is 8.3-9.6 °C. For the same substance, the “Tm, DNA” value came to 17.0 °C in data set [2] (setting [7]) and 25.0 °C in data set [2] (setting [8]). Also, the figures for the “Tm, dsDNA” value in data set [3] (setting [7]) and in data set [3] (setting [8]) were less than 14 °C and 20.9 °C, respectively.

As for “dT-r(Un^fUn^fUn^fUn^fUn^fUn^fUn^fUn^f Un^f) (TUUUUUUUUU; 2′-ribo-fluoro phosphoramidate; 5′ dT; contains 2 prime-deoxy and 2 prime-ribo- fluoronucleotides; test compounds) [SEQ ID NO:7, 2′-ribo-fluoro N3′→P5′ phosphoramidate oligonucleotide]”, the figures for the “Tm, RNA” value in data set [1] (setting [7]) and in data set [1] (setting [8]) were 55.5 °C and 61.9 °C, respectively. The “Tm difference of complexes with both DNA and RNA strands” value in data set [1] (most stable complexes, compare experiments 5, 6 and 7) is 14-21 °C. In addition, the “Tm, DNA” value in data set [2] (setting [7]) was determined as 37.4 °C; in data set [2] (setting [8]) it was 56.3 °C. Also, the “Tm, dsDNA” value came to 42.2 °C in data set [3] (setting [7]) and 54.1 °C in data set [3] (setting [8]). In addition, in data set [4], the “Stability on exposure to concentrated aqueous ammonia” value is given as “converted into a very complex mixture of products”.

Turning to “d(CnUnCnUnCnUnGnCnCn) (CUCUCUGCC; DNA, backbone, methylation of C and T or U not given here; phosphoramidate linkages) [SEQ ID NO:9, mixed base 2′-deoxy phosphoramidate oligonucleotide]”, the “Tm, RNA” value in data set [1] (setting [6]) came to 66.7 °C.

As for “d(UpUpUpUpUpUpUpUpUpT) (UUUUUUUUUT; contains 2 prime-deoxy nucleosides; test compounds) [SEQ ID NO:3, 2′-deoxy phosphodiester oligonucleotide]”, the “Tm, RNA” value in data set [1] (setting [7]) was 17.9 °C; in data set [1] (setting [8]), 20.3 °C. The entries for the “Tm, DNA” value in data set [2] (setting [7]) and in data set [2] (setting [8]) were 16.7 °C and 24.6 °C, respectively. The “Tm, dsDNA” value in data set [3] (setting [7]) and in data set [3] (setting [8]) was “n.o;^c n.o^d” throughout.
